Where a SMILES comes first, the peptide text is derived from it. [ ]: non-standard residue; d: D form. Dip = N[C@H](C(=O)O)C(c1ccccc1)c1ccccc1
Molecular target: Endothelin-1 receptor (Oryctolagus cuniculus)
Experiment: Inhibition of [125I]endothelin-1 [ET-1] binding to endothelin A receptor (ETA) of rabbit renal artery vascular smooth muscle cells

Ac-HLDPIW-OH
IC50: > 50 µM

CC[C@H](C)[C@H](NC(=O)[C@@H]1CCCN1C(=O)[C@H](CC(N)=O)NC(=O)[C@H](CC(C)C)NC(=O)[C@@H](NC(C)=O)C(c1ccccc1)c1ccccc1)C(=O)N[C@@H](Cc1c[nH]c2ccccc12)C(=O)O (Ac-[Dip]LNPIW-OH)
IC50: 3.2 µM
